The results in this text go back to patent publication US20260001928A1 (CORTERIA PHARMACEUTICALS, priority 2022, published 2026).

*1 amine or outer side, *2 acyl side, *3 side chain or, on linkers, in order; H or OH if unused. Where a SMILES comes first, the peptide text is derived from it. Side-chain parts run from the residue outwards. [ ]: non-standard residue; d: D form. The star is where a group is joined. C18 diacid = O=C(O)CCCCCCCCCCCCCCCCC(=O)*; γGlu = O=C(O)[C@H](CCC(=O)[*:2])N[*:1]; AEEA = NCCOCCOCC(=O)O; Aib = CC(C)(N)C(=O)O; Propionyl = CCC(=O)*; Butyryl = CCCC(=O)*

For one experiment, the target named is T1, CFR1R receptor (Homo sapiens, UniProt P34998).
T1 construct: host or cells: CHO-K1 (clone 2)
T1 sequence (P34998 24-415): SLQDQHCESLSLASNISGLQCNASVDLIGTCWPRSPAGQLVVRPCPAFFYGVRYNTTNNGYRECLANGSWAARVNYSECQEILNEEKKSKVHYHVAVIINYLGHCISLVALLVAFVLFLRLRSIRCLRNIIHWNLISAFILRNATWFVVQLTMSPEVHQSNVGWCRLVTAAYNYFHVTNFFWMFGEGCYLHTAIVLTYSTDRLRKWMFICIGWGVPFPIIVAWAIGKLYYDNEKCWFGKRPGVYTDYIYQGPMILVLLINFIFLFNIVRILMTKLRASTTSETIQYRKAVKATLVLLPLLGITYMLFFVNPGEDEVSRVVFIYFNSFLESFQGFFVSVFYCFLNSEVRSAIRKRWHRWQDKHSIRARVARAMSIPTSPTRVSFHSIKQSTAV
The experiment in a line: Activity at anti-target CFR1R receptor, cAMP assay in CRF1R-overexpression CHO-K1 cells. It is filed as cell-based. The conditions noted are these: 100% = Sauvagine at 100 nM; for EC50: cAMP. Put shortly: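 Clone 2 cells were cultured in F12 (Hams)/10% FBS/400 μg/ml G418 at 37° C./5% CO2, frozen in medium with 10% DMSO, and thawed vials used. The protocol followed the TeloHAEC procedure, with 4000 cells/well final and Sauvagine at 100 nM defining 100% activation.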
On the technique in general: Cyclic AMP is a second messenger, typically raised through Gs and lowered through Gi signalling.

The next experiment deals with T2, human CRF2a receptor (Homo sapiens, UniProt Q13324).
T2 construct: expressed in transfected cells; host or cells: TeloHEAC cells
T2 sequence (Q13324 1-411): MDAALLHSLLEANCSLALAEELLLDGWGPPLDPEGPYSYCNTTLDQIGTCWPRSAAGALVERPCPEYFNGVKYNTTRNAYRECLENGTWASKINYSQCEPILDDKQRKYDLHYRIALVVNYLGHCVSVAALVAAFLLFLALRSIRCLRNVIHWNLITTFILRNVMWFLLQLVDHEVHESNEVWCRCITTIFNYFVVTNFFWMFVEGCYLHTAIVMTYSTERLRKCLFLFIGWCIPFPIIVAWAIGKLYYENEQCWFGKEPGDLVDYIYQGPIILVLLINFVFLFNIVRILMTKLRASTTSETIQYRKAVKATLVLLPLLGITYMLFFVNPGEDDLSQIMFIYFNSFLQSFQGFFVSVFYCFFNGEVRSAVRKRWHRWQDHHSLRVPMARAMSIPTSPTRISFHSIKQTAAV
The experiment in a line: Activity at human CRF2a receptor, cAMP functional assay in TeloHEAC cells. The conditions noted are these: TeloHEAC cells stably expressing human CRF2a receptor, relative to urocortin 2 (100 nM = 100%). It is filed as cell-based. Put shortly:
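TeloHEAC cells stably expressing human CRF2a (10000 cells/well, suspended in HBSS/20 mM HEPES with 2 mM IBMX) were exposed to compounds for 30 min at 37 °C. cAMP was read as the 665/620 nm fluorescence ratio after 1 h at room temperature. EC50 was derived relative to 100 nM urocortin 2, set as 100%.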

On to `CCC(=O)N[C@H](C(=O)N[C@@H](CC(C)C)C(=O)N[C@@H](CO)C(=O)N[C@@H](CC(C)C)C(=O)N[C@@H](CC(=O)O)C(=O)N[C@H](C(=O)N1CCC[C@H]1C(=O)N[C@H](C(=O)N[C@@H](CCCCN)C(=O)N[C@@H](CC(C)C)C(=O)N[C@@H](CCCCNC(=O)COCCOCCNC(=O)COCCOCCNC(=O)CC[C@H](NC(=O)CCCCCCCCCCCCCCCCC(=O)O)C(=O)O)C(=O)N[C@@H](CCCCN)C(=O)N[C@H](C(=O)N[C@@H](CC(C)C)C(=O)N[C@@H](CC(C)C)C(=O)N[C@@H](CCC(=O)O)C(=O)N[C@@H](CCC(N)=O)C(=O)N[C@@H](CCC(=O)O)C(=O)N[C@@H](CCCCN)C(=O)N[C@@H](CCC(N)=O)C(=O)N[C@@H](CCCCN)C(=O)N[C@@H](CCCCN)C(=O)N[C@@H](CCC(N)=O)C(=O)N[C@@H](CCCNC(=N)N)C(=O)N[C@@H](CCC(=O)O)C(=O)N[C@@H](CCC(N)=O)C(=O)N[C@@H](C)C(=O)N[C@@H](CCC(=O)O)C(=O)N[C@H](C(=O)N[C@@H](CC(N)=O)C(=O)N[C@@H](CCCCN)C(=O)N[C@@H](CCC(N)=O)C(=O)N[C@H](C(=O)N[C@@H](CC(C)C)C(=O)N[C@@H](C)C(=O)N[C@@H](CCC(N)=O)C(=O)N[C@H](C(N)=O)C(C)C)[C@@H](C)CC)[C@@H](C)O)[C@@H](C)CC)[C@@H](C)CC)C(C)C)C(C)C` [compound 94] (Propionyl-VLSLDVPIKLK([AEEA-AEEA-γGlu-C18 diacid])KILLEQEKQKKQREQAETNKQILAQV-NH2), for which, at CFR1R receptor, the “Emax (% I)” value came to 0 % I and the half-maximal effective concentration (EC50) (usually the concentration needed to bring the measured effect to its halfway point) was > 250 nM. This compound also had an EC50 on human CRF2a receptor of 1.48 nM.
Take `CCCC(=O)N[C@H](C(=O)N[C@@H](CC(C)C)C(=O)N[C@@H](CO)C(=O)N[C@@H](CC(C)C)C(=O)N[C@@H](CC(=O)O)C(=O)N[C@H](C(=O)N1CCC[C@H]1C(=O)N[C@H](C(=O)N[C@@H](CCCCN)C(=O)N[C@@H](CC(C)C)C(=O)N[C@@H](CCCCNC(=O)COCCOCCNC(=O)COCCOCCNC(=O)CC[C@H](NC(=O)CCCCCCCCCCCCCCCCC(=O)O)C(=O)O)C(=O)N[C@@H](CCCCN)C(=O)N[C@H](C(=O)N[C@@H](CC(C)C)C(=O)N[C@@H](CC(C)C)C(=O)N[C@@H](CCC(=O)O)C(=O)N[C@@H](CCC(N)=O)C(=O)N[C@@H](CCC(=O)O)C(=O)N[C@@H](CCCCN)C(=O)N[C@@H](CCC(N)=O)C(=O)N[C@@H](CCCCN)C(=O)N[C@@H](CCCCN)C(=O)N[C@@H](CCC(N)=O)C(=O)N[C@@H](CCCNC(=N)N)C(=O)N[C@@H](CCC(=O)O)C(=O)N[C@@H](CCC(N)=O)C(=O)N[C@@H](C)C(=O)N[C@@H](CCC(=O)O)C(=O)N[C@H](C(=O)N[C@@H](CC(N)=O)C(=O)N[C@@H](CCCCN)C(=O)N[C@@H](CCC(N)=O)C(=O)N[C@H](C(=O)N[C@@H](CC(C)C)C(=O)N[C@@H](C)C(=O)N[C@@H](CCC(N)=O)C(=O)N[C@H](C(N)=O)C(C)C)[C@@H](C)CC)[C@@H](C)O)[C@@H](C)CC)[C@@H](C)CC)C(C)C)C(C)C` [compound 95] (Butyryl-VLSLDVPIKLK([AEEA-AEEA-γGlu-C18 diacid])KILLEQEKQKKQREQAETNKQILAQV-NH2): on CFR1R receptor, the “Emax (% I)” value is 5 % I and the half-maximal effective concentration (EC50) was > 250 nM. At human CRF2a receptor, the EC50 was determined as 0.76 nM.
In the case of `CC[C@H](C)[C@H](NC(C)=O)C(=O)N[C@H](C(=O)N[C@@H](CC(C)C)C(=O)N[C@@H](CO)C(=O)N[C@@H](CC(C)C)C(=O)N[C@@H](CC(=O)O)C(=O)N[C@H](C(=O)N1CCC[C@H]1C(=O)N[C@H](C(=O)N[C@@H](CCCCN)C(=O)N[C@@H](CC(C)C)C(=O)N[C@@H](CCCCNC(=O)COCCOCCNC(=O)COCCOCCNC(=O)CC[C@H](NC(=O)CCCCCCCCCCCCCCCCC(=O)O)C(=O)O)C(=O)N[C@@H](CCCCN)C(=O)N[C@H](C(=O)N[C@@H](CC(C)C)C(=O)N[C@@H](CC(C)C)C(=O)N[C@@H](CCC(=O)O)C(=O)N[C@@H](CCC(N)=O)C(=O)N[C@@H](CCC(=O)O)C(=O)N[C@@H](CCCCN)C(=O)N[C@@H](CCC(N)=O)C(=O)N[C@@H](CCCCN)C(=O)N[C@@H](CCCCN)C(=O)N[C@@H](CCC(N)=O)C(=O)N[C@@H](CCCNC(=N)N)C(=O)N[C@@H](CCC(=O)O)C(=O)N[C@@H](CCC(N)=O)C(=O)N[C@@H](C)C(=O)N[C@@H](CCC(=O)O)C(=O)N[C@H](C(=O)N[C@@H](CC(N)=O)C(=O)NC(C)(C)C(=O)N[C@@H](CCC(N)=O)C(=O)N[C@H](C(=O)N[C@@H](CC(C)C)C(=O)N[C@@H](C)C(=O)N[C@@H](CCC(N)=O)C(=O)N[C@H](C(N)=O)C(C)C)[C@@H](C)CC)[C@@H](C)O)[C@@H](C)CC)[C@@H](C)CC)C(C)C)C(C)C` [compound 97] (Ac-IVLSLDVPIKLK([AEEA-AEEA-γGlu-C18 diacid])KILLEQEKQKKQREQAETN[Aib]QILAQV-NH2), the “Emax (% I)” value on CFR1R receptor amounted to 0 % I. Moreover, the EC50 is > 250 nM at CFR1R receptor and 3.17 nM at human CRF2a receptor.
The matching figures for `CC[C@H](C)[C@H](NC(=O)[C@H](CCC(N)=O)NC(=O)C(C)(C)NC(=O)[C@H](CC(N)=O)NC(=O)[C@@H](NC(=O)[C@H](CCC(=O)O)NC(=O)[C@H](C)NC(=O)[C@H](CCC(N)=O)NC(=O)[C@H](CCC(=O)O)NC(=O)[C@H](CCCNC(=N)N)NC(=O)[C@H](CCC(N)=O)NC(=O)[C@H](CCCCN)NC(=O)[C@H](CCCCN)NC(=O)[C@H](CCC(N)=O)NC(=O)[C@H](CCCCN)NC(=O)[C@H](CCC(=O)O)NC(=O)[C@H](CCC(N)=O)NC(=O)[C@H](CCC(=O)O)NC(=O)[C@H](CC(C)C)NC(=O)[C@H](CC(C)C)NC(=O)[C@@H](NC(=O)[C@H](CCCCN)NC(=O)[C@H](CCCCNC(=O)COCCOCCNC(=O)COCCOCCNC(=O)CC[C@H](NC(=O)CCCCCCCCCCCCCCCCC(=O)O)C(=O)O)NC(=O)[C@H](CC(C)C)NC(=O)[C@H](CCCCN)NC(=O)[C@@H](NC(=O)[C@@H]1CCCN1C(=O)[C@H](NC(=O)[C@H](CC(=O)O)NC(=O)[C@H](CC(C)C)NC(=O)[C@H](CO)NC(=O)[C@H](CC(C)C)NC(=O)[C@@H](NC(C)=O)C(C)C)C(C)C)[C@@H](C)CC)[C@@H](C)CC)[C@@H](C)O)C(=O)N[C@@H](CC(C)C)C(=O)N[C@@H](C)C(=O)N[C@@H](CCC(N)=O)C(=O)N[C@H](C(N)=O)C(C)C` [compound 99] (Ac-VLSLD[dV]PIKLK([AEEA-AEEA-γGlu-C18 diacid])KILLEQEKQKKQREQAETN[Aib]QILAQV-NH2): 0 % I, > 250 nM and 6.07 nM.
The matching figures for `CC[C@H](C)[C@H](NC(=O)[C@H](CCC(N)=O)NC(=O)[C@H](C)NC(=O)[C@H](CC(N)=O)NC(=O)[C@@H](NC(=O)[C@H](CCC(=O)O)NC(=O)[C@H](C)NC(=O)[C@H](CCC(N)=O)NC(=O)[C@H](CCC(=O)O)NC(=O)[C@H](CCCNC(=N)N)NC(=O)[C@H](CCC(N)=O)NC(=O)[C@H](CCCCN)NC(=O)[C@H](CCCCN)NC(=O)[C@H](CCC(N)=O)NC(=O)[C@H](CCCCN)NC(=O)[C@H](CCC(=O)O)NC(=O)[C@H](CCC(N)=O)NC(=O)[C@H](CCC(=O)O)NC(=O)[C@H](CC(C)C)NC(=O)[C@H](CC(C)C)NC(=O)[C@@H](NC(=O)[C@H](CCCCN)NC(=O)[C@H](CCCCNC(=O)COCCOCCNC(=O)COCCOCCNC(=O)CC[C@H](NC(=O)CCCCCCCCCCCCCCCCC(=O)O)C(=O)O)NC(=O)[C@H](CC(C)C)NC(=O)[C@H](CCCCN)NC(=O)[C@@H](NC(=O)[C@@H]1CCCN1C(=O)[C@H](NC(=O)[C@H](CC(=O)O)NC(=O)[C@H](CC(C)C)NC(=O)[C@H](CO)NC(=O)[C@H](CC(C)C)NC(=O)[C@@H](NC(C)=O)C(C)C)C(C)C)[C@@H](C)CC)[C@@H](C)CC)[C@@H](C)O)C(=O)N[C@@H](CC(C)C)C(=O)N[C@@H](C)C(=O)N[C@@H](CCC(N)=O)C(=O)N[C@H](C(N)=O)C(C)C` [compound 101] (Ac-VLSLD[dV]PIKLK([AEEA-AEEA-γGlu-C18 diacid])KILLEQEKQKKQREQAETNAQILAQV-NH2): 0 % I, > 250 nM and 1.74 nM.
